# In PMC5053523, “In Vitro Antibacterial Activity of Rhodanine Derivatives against Pathogenic Clinical Isolates” (PLoS ONE, 2016):
# Read-outs that look alike come from different tables or passages of the source.
# Key:
# [1] = test system: Escherichia coli O157:H7; experiment: MIC with/without PMBN, Escherichia coli O157:H7; assay type: cell-based
# In short: (§1)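 Compounds plus sub-inhibitory colistin or PMBN; MIC against Gram-negatives, with control antibiotics in parallel.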
# [2] = test system: Mycobacterium smegmatis; experiment: Broth microdilution MIC/MBC, Mycobacterium smegmatis; assay type: cell-based; conditions: Mycolicibacterium smegmatis, ATCC14468, M. Smegmatis ATCC 14468
# [3] = test system: Acinetobacter baumannii; experiment: MIC with/without sub-MIC colistin, Acinetobacter baumannii; assay type: cell-based
# In short: as §1
# [4] = test system: Vancomycin Resistant Staphylococcus aureus (VRSA); experiment: Broth microdilution MIC/MBC, VRSA; assay type: cell-based; conditions: for MBC / MIC: VRSA
# [5] = test system: Escherichia coli O157:H7; experiment: MIC with/without sub-MIC colistin, Escherichia coli O157:H7; assay type: cell-based
# In short: as §1
# [6] = test system: K. pneumoniae; experiment: Broth microdilution MIC, K. pneumoniae; assay type: cell-based
# [7] = test system: Candida albicans; experiment: MIC against Candida albicans; assay type: cell-based; conditions: table prints none, read-out: MIC
# [8] = test system: Salmonella Typhimurium; experiment: MIC with/without PMBN, Salmonella Typhimurium; assay type: cell-based
# In short: as §1
# [9] = test system: Pseudomonas aeruginosa; experiment: MIC with/without PMBN, Pseudomonas aeruginosa; assay type: cell-based
# In short: as §1
# [10] = test system: Pseudomonas aeruginosa; experiment: MIC with/without sub-MIC colistin, Pseudomonas aeruginosa; assay type: cell-based
# In short: as §1
# [11] = test system: Escherichia coli Δ acrAB; experiment: MIC against E. coli 1411 and AcrAB efflux pump deficient E. coli SM1411Δ acrAB; assay type: cell-based
# In short: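 Gram-negative MICs were determined for rhodanines alongside control antibiotics, each combined with sub-inhibitory colistin or PMBN. Further testing used the efflux-deficient E. coli SM1411ΔacrAB, missing the AcrAB multidrug pump.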
# [12] = test system: methicillin-resistant Staphylococcus aureus (MRSA); experiment: Broth microdilution MIC/MBC, MRSA; assay type: cell-based
# [13] = test system: Clostridium difficile; experiment: MIC against Clostridium difficile, anaerobic broth dilution; assay type: cell-based; conditions: Clostridioides difficile
# In short: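 Clinical C. difficile isolates grown anaerobically 48 h at 37 °C, suspended to 0.5 McFarland and diluted 1:300 in pre-reduced supplemented Brain Heart Infusion broth. Compounds serially diluted; plates incubated anaerobically at 37 °C for 48 h. MIC = lowest concentration with no visible growth.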
# [14] = test system: Bacillus Strains; experiment: Broth microdilution MIC50/MIC90 and MIC range, Bacillus strains panel; assay type: cell-based, Bacillus spp.; conditions: 10 Bacillus strains
# From the text: The broth microdilution technique was used, followed by subculturing on agar plates that were rhodanine—free. […] The MICs reported represent the lowest concentration of each compound necessary to inhibit bacterial growth and the MBCs represent the lowest concentration required to reduce the initial bacterial inoculum by ≥ 99.9%.
compound,measurement,setting,value
O=C(O)[C@@H](Cc1ccccc1)N1C(=O)/C(=C/c2cccc(Cc3ccccc3)c2)SC1=S [Rh 7],MIC,"[1]; Escherichia coli O157:H7 ATCC 35150, PMBN (+) 4 μg/mL, read-out: MIC",8 µM
same,MIC,"[1]; Escherichia coli O157:H7 ATCC 700728, PMBN (+) 4 μg/mL, read-out: MIC",>64 µM
same,MIC,"[1]; Escherichia coli, ATCC35150",> 256 µM
same,MIC,"[1]; Escherichia coli, ATCC700728",> 128 µM
same,MBC,[2]; read-out: MBC,16 µM
same,MIC,[2]; read-out: MIC,16 µM
same,MIC,"[3]; Acinetobacter baumannii ATCC BAA747, colistin (+) […], read-out: MIC",>64 µM
same,MIC,"[3]; Acinetobacter baumannii ATCC BAA19606, colistin (+) […], read-out: MIC",>64 µM
same,MIC,"[3]; Acinetobacter baumannii, ATCCBAA747",> 128 µM
same,MIC,"[3]; Acinetobacter baumannii, ATCCBAA19606",> 128 µM
same,MIC50,"[4]; 15 VRSA strains, read-out: MIC 50",8 µM
same,MIC90,"[4]; 15 VRSA strains, read-out: MIC 90",16 µM
same,MBC,"[4]; VRSA 1, read-out: MBC",32 µM
same,MIC,"[4]; VRSA 1, read-out: MIC",16 µM
same,MBC,"[4]; VRSA 2, read-out: MBC",8 µM
same,MIC,"[4]; VRSA 2, read-out: MIC",8 µM
same,MBC,"[4]; VRSA 3a, read-out: MBC",8 µM
same,MIC,"[4]; VRSA 3a, read-out: MIC",8 µM
same,MBC,"[4]; VRSA 3b, read-out: MBC",32 µM
same,MIC,"[4]; VRSA 3b, read-out: MIC",8 µM
same,MBC,"[4]; VRSA 4, read-out: MBC",16 µM
same,MIC,"[4]; VRSA 4, read-out: MIC",8 µM
same,MBC,"[4]; VRSA 5, read-out: MBC",8 µM
same,MIC,"[4]; VRSA 5, read-out: MIC",8 µM
same,MBC,"[4]; VRSA 6, read-out: MBC",16 µM
same,MIC,"[4]; VRSA 6, read-out: MIC",8 µM
same,MBC,"[4]; VRSA 7, read-out: MBC",16 µM
same,MIC,"[4]; VRSA 7, read-out: MIC",8 µM
same,MBC,"[4]; VRSA 8, read-out: MBC",16 µM
same,MIC,"[4]; VRSA 8, read-out: MIC",8 µM
same,MBC,"[4]; VRSA 9, read-out: MBC",16 µM
same,MIC,"[4]; VRSA 9, read-out: MIC",16 µM
same,MBC,"[4]; VRSA 10, read-out: MBC",16 µM
same,MIC,"[4]; VRSA 10, read-out: MIC",8 µM
same,MBC,"[4]; VRSA 11a, read-out: MBC",16 µM
same,MIC,"[4]; VRSA 11a, read-out: MIC",8 µM
same,MBC,"[4]; VRSA 11b, read-out: MBC",32 µM
same,MIC,"[4]; VRSA 11b, read-out: MIC",8 µM
same,MBC,"[4]; VRSA 12, read-out: MBC",16 µM
same,MIC,"[4]; VRSA 12, read-out: MIC",8 µM
same,MBC,"[4]; VRSA 13, read-out: MBC",32 µM
same,MIC,"[4]; VRSA 13, read-out: MIC",8 µM
same,MIC,"[5]; Escherichia coli O157:H7 ATCC 35150, colistin (+) […], read-out: MIC",>64 µM
same,MIC,"[5]; Escherichia coli O157:H7 ATCC 700728, colistin (+) […], read-out: MIC",>64 µM
same,MIC,"[5]; Escherichia coli, ATCC35150",> 128 µM
same,MIC,"[5]; Escherichia coli, ATCC700728",> 128 µM
same,MIC,[6]; K. pneumoniae NR-15417,>128 µM
same,MIC,[6]; Klebsiella pneumoniae,> 128 µM
same,MIC,"[7]; ATCC10231, C. albicans ATCC 10231, unit from abstract",> 64 µM
same,MIC,"[7]; C. albicans NR 29434, unit from abstract",> 64 µM
same,MIC,"[7]; C. albicans NR 29435, unit from abstract",> 64 µM
same,MIC,"[7]; C. albicans NR29437, unit from abstract",> 64 µM
same,MIC,"[7]; C. albicans NR29438, unit from abstract",> 64 µM
same,MIC,"[7]; C. albicans NR 29446, unit from abstract",64 µM
same,MIC,"[7]; C. albicans NR 29448, unit from abstract",> 64 µM
same,MIC,"[7]; C. albicans NR 29449, unit from abstract",> 64 µM
same,MIC,"[7]; C. albicans NR 29453, unit from abstract",> 64 µM
same,MIC,"[7]; C. albicans NR 294436, unit from abstract",> 64 µM
same,MIC,"[8]; Salmonella Typhimurium ATCC 700720, PMBN (+) 4 μg/mL, read-out: MIC",>128 µM
same,MIC,"[8]; Salmonella enterica, ATCC 700720 / TYPHIMURIUM",> 128 µM
same,MIC,"[9]; Pseudomonas aeruginosa ATCC 9721, PMBN (+) 4 μg/mL, read-out: MIC",>64 µM
same,MIC,"[9]; Pseudomonas aeruginosa, ATCC9721",> 128 µM
same,MIC,"[10]; Pseudomonas aeruginosa ATCC 921, colistin (+) […], read-out: MIC",>64 µM
same,MIC,"[10]; Pseudomonas aeruginosa, ATCC921",> 128 µM
same,MIC,[11]; E.coli 1411,> 64 µM
same,MIC,"[11]; E.coli 1411 SM (Δ acrAB, AcrAB efflux pump deficient)",> 64 µM
same,MIC50,[12]; 11 MRSA strains,8 µM
same,MIC90,[12]; 11 MRSA strains,16 µM
same,MBC,[12]; MRSA NRS 1,16 µM
same,MIC,[12]; MRSA NRS 1,8 µM
same,MBC,[12]; MRSA NRS 19,8 µM
same,MIC,[12]; MRSA NRS 19,8 µM
same,MBC,[12]; MRSA NRS 37,16 µM
same,MIC,[12]; MRSA NRS 37,16 µM
same,MBC,[12]; MRSA NRS 107,16 µM
same,MIC,[12]; MRSA NRS 107,16 µM
same,MBC,[12]; MRSA NRS 119,8 µM
same,MIC,[12]; MRSA NRS 119,8 µM
same,MBC,[12]; MRSA NRS 383,16 µM
same,MIC,[12]; MRSA NRS 383,16 µM
same,MBC,[12]; MRSA NRS 384,64 µM
same,MIC,[12]; MRSA NRS 384,8 µM
same,MBC,[12]; MRSA NRS 385,16 µM
same,MIC,[12]; MRSA NRS 385,8 µM
same,MBC,[12]; MRSA NRS 386,> 64 µM
same,MIC,[12]; MRSA NRS 386,8 µM
same,MBC,[12]; MRSA NRS 387,8 µM
same,MIC,[12]; MRSA NRS 387,8 µM
same,MIC,[13]; C. difficile HM-88,4 µM
same,MIC,[13]; C. difficile HM-745,1 µM
same,MIC,[13]; C. difficile HM-746,2 µM
same,MIC,[13]; C. difficile Isolate-1 NR-13427,4 µM
same,MIC,[13]; C. difficile Toxigenic Strain P8 NR-32888,4 µM
same,MIC50,[14],4 µM
same,MIC90,[14],8 µM
